This passage reports T/C results from PubChem BioAssay AID212 (DTP/NCI, 2004).

SMILES strings stand for the structures. “And” between values parts separate entries of the source, which are not always exact repeats. Equal values may be shown once. Results filed as inconclusive are left out.

This experiment concerns BDF1 mice, colon carcinoma 38 sc, T/C %. Briefly: NCI In Vivo Anticancer Drug Screen. Data for tumor model Colon Carcinoma 38 (subcutaneous) in B6D2F1 (BDF1) mice. The following applies: endpoint: median tumor weight (est.), higher = larger tumour. The procedure, abridged: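 Ratio of survival or tumor size, compound-treated animals relative to vehicle controls, in tumor-bearing mice.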

The mark [1] stands for this setting: dose: 6.25 mg/kg/injection, schedule: Q07DX002 (ip), vehicle: saline with Tween-80.

Take `Cc1cc(O)c2c(c1O)C(=O)C13C(=C2O)C(=O)C2C(O)C1C1C(O)C3C(=O)C3=C(O)c4c(O)cc(C)c(O)c4C(=O)C321` (stereo not given): the T/C under setting [1] was 68 % of control.

Regarding `Cc1c(-c2ccc(-c3ccccc3F)cc2)nc2ccc(F)cc2c1C(=O)O`, the T/C is, setting by setting: (dose: 5.0 mg/kg/injection, schedule: Q01DX008 (ip), vehicle: water) 24 % of control; (dose: 10.0 mg/kg/injection, schedule: Q01DX008 (ip), vehicle: water) 5 % of control; (dose: 20.0 mg/kg/injection, schedule: Q01DX008 (ip), vehicle: water) 16 % of control.

Turning to `COC(=O)C(F)C(Br)C(=O)OC` (stereo not given), the T/C reads like this: under setting [1], 95 % of control and 99 % of control; (dose: 12.5 mg/kg/injection, schedule: Q07DX002 (ip), vehicle: saline with Tween-80) 63 % of control.

On to `CC(=O)C(O)N1C(=O)C=CC1=O` (stereo not given), for which the T/C is 109 % of control (dose: 0.62 mg/kg/injection, schedule: Q07DX003 (ip), vehicle: saline); 76 % of control (dose: 1.25 mg/kg/injection, schedule: Q07DX003 (ip), vehicle: saline); 111 % of control (dose: 2.5 mg/kg/injection, schedule: Q07DX003 (ip), vehicle: saline); 108 % of control (dose: 5.0 mg/kg/injection, schedule: Q07DX003 (ip), vehicle: saline).
